Reference: patent US20240269120A1, “Method for Treating an Autoimmune and Inflammatory Disease” (Cellestia Biotech AG, priority 2021, published 2024)

How the values were obtained:
[1] = tested on: Treg cells (CD4+CD25highFOXP3+); test: In vivo dosing of C57BL6 mice, Treg cells in spleen; design: species or system mouse; conditions: C57BL6 wild type mice, 60 mg/kg QD
Procedure: C57BL6 wild type mice were treated with 6-(4-tert-butylphenoxy)pyridin-3-amine at 60 mg/kg dose (QD). […] (*) p<0.05. Each bar represents the mean±SEM (N=3 replicates).
In vivo treatment of mice and pharmacodynamic response: Mice experiments were performed in compliance with authorization to perform animal experiments (VD3323). Briefly, 6-8 weeks old wild type C57Bl6 mice were subcutaneously or intraperitoneally dosed with vehicle or compounds for different durations. Mice were sacrificed, spleens were harvested 24 hours post-last dosing. Splenocytes were analyzed for cell surface and intracellular markers expression using flow cytometry. RNA expression analyses were performed using quantitative real time PCR.
(§1) Flow cytometry analysis: Flow cytometry analysis was performed to quantify cell surface and intracellular markers expression and measure cell division index.

IFNG [2] = test: ELISA of supernatant from activated human PBMC cultures: IFNG; assay type: cell-based; conditions: control 0%
Procedure: (§2) Human PBMCs and mouse splenocyte in vitro stimulation and treatment: Human peripheral blood mononuclear cells (PBMCs) and mouse splenocytes from donors were stimulated in vitro with anti-CD3 and anti-CD28 antibodies. The stimulated cells were simultaneously treated with compounds for 96 hours. The T cells were profiled for different cell surface and intracellular markers and proliferation by flow cytometry.
ELISA assay: Supernatant from activated human PBMC cultures described above was separated from cells at the end of culture time. Key cytokines (IL-6, IFN-γ, IL-17) were quantified using sandwich ELISA reagents set (Diaclone) following manufacturer's instruction manual.

IFNG [3] = test: Cytokine profiling in human patient plasma (MSD): IFNG; assay type: in vivo; conditions: human patients, day 29 on treatment vs baseline pre-treatment
Procedure: (§3) Cytokine profiling in human plasma samples: Plasma samples from patients treated with 6-(4-tert-butylphenoxy)pyridin-3-amine were collected and stored at −80° C. until analysed. Cytokine and chemokine profiling was performed using MesoScale Discovery (MSD) platform and three assay panels: 1) Pro-inflammatory panel human, 2) Human IL-6 assay S-Plex, 3) Human IL-10 assay S-Plex.

IL-6 = test: Cytokine profiling in human patient plasma (MSD): IL-6; assay type: in vivo; conditions: human patients, day 3 on treatment vs baseline pre-treatment
Procedure: as §3

Treg cells = test: Treg expansion in activated human PBMC cultures (anti-CD3/anti-CD28, flow cytometry); assay type: cell-based; conditions: anti-CD3 and anti-CD28, 96 hours, control 0%
Procedure: as §2, §1
Viability staining: Cells were transferred into a 96 well conical bottom plate and washed with serum free PBS1×. Cells were incubated with Zombie NIR (Biolegend #423105)+FC block ([…]) for 20 minutes at 4° C. Cells were washed with staining medium (SM) (1×HBSS, 2.5 mM EDTA, 2% NBS
Cell surface marker staining: Cells were stained with antibodies against cell surface markers (CD3, CD4, CD8, CD25, Biolegend or ThermoFisher) for 20 minutes at 4° C. Cells were washed with SM before continuing with nuclear staining.
FOXP3 nuclear staining: Cells were fixed and permeabilized with Foxp3 Transcription Factor Staining Buffer Set (ThermoFisher #00-5523) for 20 minutes at room temperature. […] Results are finally analysed with the software FlowJo v.10.7.1.

In the case of `CC(C)(C)c1ccc(Oc2ccc(N)cn2)cc1` [6-(4-tert-butylphenoxy)pyridin-3-amine], the “Treg cells (CD4+CD25highFOXP3+) number” value ([1]; p<0.05, FIG. 2a) is reported as “significantly increased”, the “Treg cells (CD4+CD25highFOXP3+) frequency” value ([1]; p<0.05, FIG. 2b) is reported as “significantly increased” and the “Percentage downregulation of IFNG” value (IFNG [2]) is reported as 10%. For the same molecule, the “Percentage downregulation of IFNG in blood plasma” value (IFNG [3]) was 90% (day 29 on treatment), the “Percentage downregulation of IL-6 in blood plasma” value (IL-6) was 57% (day 3 on treatment) and the “expansion of Treg cells” value (Treg cells) was 112%.
